Reference: ChEMBL document CHEMBL1136106, “Synthesis and biological activities of 1-pyridylisoquinoline and 1-pyridyldihydroisoquinoline derivatives as PDE4 inhibitors” (Bioorg Med Chem Lett, 2003)

Experiments:
Mus musculus = species: Mus musculus; assay: Inhibition of LPS-induced TNF-alpha production in mice after 30 min peroral dose; format: functional; conditions: po, 0.5 h
Phosphodiesterase 4 [1] = target: T1, Phosphodiesterase 4 (Homo sapiens, UniProt P27815+Q08499+Q07343+Q08493); assay: Inhibition of phosphodiesterase 4; format: protein assay
Phosphodiesterase 4 [2] = target: T1, Phosphodiesterase 4; assay: Inhibition of rolipram binding to phosphodiesterase 4; format: protein assay

Compound: COc1ccc(C(=O)Nc2c(Cl)cncc2Cl)cc1OC1CCCC1
- ED50 (Mus musculus): 0.72 mg/kg

Compound: COc1cc2cc(CO)c(CO)c(-c3ccnc(-n4nc(-c5cccnc5)c5ccccc5c4=O)c3)c2cc1OC.Cl
- IC50 (Phosphodiesterase 4 [1]): 0.7 nM
- ED50 (Mus musculus): 1.2 mg/kg

Compound: COc1cc2c(cc1OC)C(c1ccnc(-n3nc(-c4cccnc4)c4ccccc4c3=O)c1)=N[C@H](CO)C2.Cl
- Ki (Phosphodiesterase 4 [2]): 6.5 nM
- IC50 (Phosphodiesterase 4 [1]): 1 nM
- ED50 (Mus musculus): 0.52 mg/kg

Compound: COc1cc2c(cc1OC)C(c1ccnc(-n3ccc4c(OCCN5CCOCC5)cccc4c3=O)c1)=N[C@H](CO)C2.Cl
- Ki (Phosphodiesterase 4 [2]): 1.8 nM
- IC50 (Phosphodiesterase 4 [1]): 0.5 nM
- ED50 (Mus musculus): 0.13 mg/kg

Compound: COc1cc2c(cc1OC)C(c1ccnc(-n3nc(Cc4cccnc4)c4ccccc4c3=O)c1)=N[C@H](CO)C2.Cl
- Ki (Phosphodiesterase 4 [2]): 3.1 nM
- IC50 (Phosphodiesterase 4 [1]): 2 nM

Compound: COc1cc2cc(CO)cc(-c3ccnc(-n4nc(-c5cccnc5)c5ccccc5c4=O)c3)c2cc1OC.Cl
- Ki (Phosphodiesterase 4 [2]): 3 nM

Compound: COc1cc2cc(CO)nc(-c3ccnc(-n4nc(-c5nccs5)c5ccccc5c4=O)c3)c2cc1OC.Cl
- Ki (Phosphodiesterase 4 [2]): 1.7 nM
- IC50 (Phosphodiesterase 4 [1]): 0.3 nM
- ED50 (Mus musculus): 0.26 mg/kg

Compound: COc1cc2c(cc1OC)C(c1ccnc(-n3nc(-c4cncnc4)c4ccccc4c3=O)c1)=N[C@H](CO)C2.Cl
- Ki (Phosphodiesterase 4 [2]): 5.4 nM
- IC50 (Phosphodiesterase 4 [1]): 3 nM

Compound: COc1cc2nc(CO)c(CO)c(-c3ccnc(-n4nc(-c5cccnc5)c5ccccc5c4=O)c3)c2cc1OC.Cl
- Ki (Phosphodiesterase 4 [2]): 120 nM
- IC50 (Phosphodiesterase 4 [1]): 70 nM

Compound: COc1cc2c(cc1OC)C(c1ccnc(-n3ccc4c(OCc5cccnc5)cccc4c3=O)c1)=N[C@H](CO)C2.Cl
- Ki (Phosphodiesterase 4 [2]): 1.5 nM
- IC50 (Phosphodiesterase 4 [1]): 0.4 nM
- ED50 (Mus musculus): 2.4 mg/kg

Compound: COc1cc2cc(CO)nc(-c3ccnc(-n4nc(-c5cccs5)c5ccccc5c4=O)c3)c2cc1OC.Cl
- Ki (Phosphodiesterase 4 [2]): 1.4 nM
- IC50 (Phosphodiesterase 4 [1]): 0.3 nM
- ED50 (Mus musculus): 1.6 mg/kg

Compound: COc1cc2cc(CO)nc(-c3ccnc(-n4nc(-c5cccnc5)c5ccccc5c4=O)c3)c2cc1OC.Cl
- Ki (Phosphodiesterase 4 [2]): 1.4 nM
- IC50 (Phosphodiesterase 4 [1]): 0.6 nM

Compound: COc1ccc(C2CNC(=O)C2)cc1OC1CCCC1 (stereo not drawn) [ROLIPRAM]
- ED50 (Mus musculus): 2.6 mg/kg
